This is an account of results in PMC8907207, “Multiplex quantification of C-terminal alpha-1-antitrypsin peptides provides a novel approach for characterizing systemic inflammation” (Scientific Reports, 2022).

Data set [1] is described as follows: Benchtop stability of QC samples at room temperature. The note with it: QC in 70 g/L albumin in PBS, 60 min. at room temperature, LC-MS/MS. In kind it is in vitro ADME. As for the experimental part: (§1) Stability of analytes in processed samples was determined at six independent days for a time span of 20 h in the autosampler. Deviations of standing samples to freshly measured samples were below 19% at the LLOQ and below 9% for other QC levels for each analyte, respectively (Additional file 4). Stability of analytes in biological matrix was determined by consecutive cycles of freezing and thawing as well as extended intervals at room temperature from thawing to processing (approximately one hour).
(§2) Lyophilized authentic peptide standards were dissolved and diluted in a 70 g/L Albumin (from human serum, lyophilized, ≥ 99%, Sigma-Aldrich) in PBS (Sigma-Aldrich, St. Louis, MO, USA) solution. Internal standards C37^IS and C42^IS were dissolved in Milli-Q water (Millipore, Brussels, Belgium) containing 0.1% (v/v) formic acid (≥ 95%, Sigma-Aldrich) whereas C22^IS was only dissolved in ultrapure water. Mixtures of CAAPs used as calibration standards (calibrants) and quality control samples (QCs) were prepared as stock solution to a final concentration of 14 µM, respectively, (expect C40^SNP which was 5 µM) with subsequent serial dilutions. Calibrants and QCs were obtained from separate serial dilutions. Internal standard solution was prepared by adding equal volumes of each IS yielding a final concentration of 0.8 µM, respectively. All samples used for method development and validation were prepared and stored in 0.5 mL Protein LoBind Tubes (Eppendorf AG, Hamburg, Germany) in aliquots at − 80 °C until use.
(§3) Working range of calibrants was defined based on CAAPs detected in samples from healthy donors (set to approximate lower limit of quantification) and in samples from septic patients (set to middle to high calibration range) which were re-analyzed from a previously work[46]. Nine calibrants were used in total ranging from 0.01 µM to 1.5 µM thereby covering more than two orders of magnitude in concentration. Linearity was assessed determining mean linear regression coefficients of each calibration curve from 0.01 to 1.5 µM in eight independent analytical runs. However, respective LLOQs (lower limit of quantification) and ULOQs (upper limit of quantification) were defined individually based on natural occurrence (see above) and results from validation parameter directly affected individual working ranges (carry-over, specificity). Four QC samples were prepared and measured in total (QC1, QC2, QC3, and QC4) to cover the entire range of calibration. However, three QCs for each of the respective analytes were used for method validation. Carry-over was determined measuring pure albumin solutions prepared without internal standards (but equal amount and concentration of water/formic acid solution as regular internal standard solution, “blank albumin sample”) directly after the respective highest calibrants. Peak areas were compared to peak areas from respective LLOQ samples (prepared with regular internal standard solution). Specificity was assessed using single compounds at respective highest calibrant level which were prepared and calculated as described for carry-over. The specificity of analytes towards internal standards was determined using pure albumin solution with internal standard (“zero albumin sample”). Accuracy and precision was determined by back-calculated concentrations from repeated measurements of the same QC samples during one analytical run (within-run repeatability, n = 5) and from freshly prepared samples during five independent analytical runs (between-run, n = 5). Due to the unavailability of analyte-free biological matrix, selectivity of analytes were assessed in pure albumin solution containing internal standards. Matrix effects were determined calculating recovery rates and precision of each compound in human blood samples. Direct comparison between different anticoagulants (EDTA, lithium-heparin) and serum was performed using whole blood from the same human donor. […]

Data set [2] in a line: Freeze/thaw stability of QC samples. Type of data set: in vitro ADME. The note with it: QC in 70 g/L albumin in PBS, two cycles of freezing and thawing, LC-MS/MS. As for the experimental part: as §1, §2, §3
The mark [3] stands for this setting: QC2 (0.025 µM; C40^SNP see Table 1).
The mark [4] stands for this setting: QC3 (0.3 µM; C40^SNP 0.1073 µM).

Ends that are not written are not given here.

Regarding “AMFLEAIPMSIPPEVKFNKPFVFLMIDQNTKSPLFMGKVVNPTQK [C45^SNP]”, in data set [1] (setting [3]), the benchtop stability, accuracy (mean of n=3) was found to be 114% and the “benchtop stability, deviation from freshly processed QCs (mean of n=3)” value (“benchtop stability, deviation” for short) was determined as 1%. Besides, in data set [1] (setting [4]), the benchtop stability, accuracy (mean of n=3) amounted to 112% and the “benchtop stability, deviation” value is -2%. Besides, in data set [2] (setting [3]), the freeze/ thaw stability, accuracy (mean of n=3) came out at 109% and the “freeze/ thaw stability, deviation from freshly processed QCs (mean of n=3)” value (“freeze/ thaw stability, deviation” below) is listed as -3%. Further, in data set [2] (setting [4]), the freeze/ thaw stability, accuracy (mean of n=3) came out at 112% and the “freeze/ thaw stability, deviation” value is recorded as -2%.

Consider “MSIPPEVKFNKPFVFLMIEQNTKSPLFMGKVVNPTQK [C37^WT]”, for which, in data set [1] (setting [3]), the benchtop stability, accuracy (mean of n=3) turned out to be 106% and the “benchtop stability, deviation” value amounted to 1%. In data set [1] (setting [4]), the benchtop stability, accuracy (mean of n=3) came to 101% and the “benchtop stability, deviation” value is recorded as -1%. In data set [2] (setting [3]), the freeze/ thaw stability, accuracy (mean of n=3) came to 114% and the “freeze/ thaw stability, deviation” value stood at 9%. For the same sequence, in data set [2] (setting [4]), the freeze/ thaw stability, accuracy (mean of n=3) came out at 103% and the “freeze/ thaw stability, deviation” value was determined as 1%.

For the sequence “FLEAIPMSIPPEVKFNKPFVFLMIEQNTKSPLFMGKVVNPTQK [C43^WT]”, in data set [1] (setting [3]), the benchtop stability, accuracy (mean of n=3) came out at 110% and the “benchtop stability, deviation” value is listed as 4%. In data set [1] (setting [4]), the benchtop stability, accuracy (mean of n=3) came out at 109% and the “benchtop stability, deviation” value was -1%. For the same sequence, in data set [2] (setting [3]), the freeze/ thaw stability, accuracy (mean of n=3) is 103% and the “freeze/ thaw stability, deviation” value is reported as -2%. For the same sequence, in data set [2] (setting [4]), the freeze/ thaw stability, accuracy (mean of n=3) is 108% and the “freeze/ thaw stability, deviation” value is -2%.

“IPMSIPPEVKFNKPFVFLMIDQNTKSPLFMGKVVNPTQK [C39^SNP]”: in data set [1] (setting [3]), the benchtop stability, accuracy (mean of n=3) amounted to 102% and the “benchtop stability, deviation” value is reported as -4%. In data set [1] (setting [4]), the benchtop stability, accuracy (mean of n=3) is 100% and the “benchtop stability, deviation” value was -4%. For the same sequence, in data set [2] (setting [3]), the freeze/ thaw stability, accuracy (mean of n=3) was found to be 105% and the “freeze/ thaw stability, deviation” value was -1%. Moreover, in data set [2] (setting [4]), the freeze/ thaw stability, accuracy (mean of n=3) is 102% and the “freeze/ thaw stability, deviation” value is on record as -2%.

As to “FLEAIPMSIPPEVKFNKPFVFLMIDQNTKSPLFMGKVVNPTQK [C43^SNP]”, the benchtop stability, accuracy (mean of n=3) in data set [1] (setting [3]) was determined as 109%; in data set [1] (setting [4]), 107%. The “benchtop stability, deviation” value in data set [1] (setting [3]) was 1%; in data set [1] (setting [4]), -3%. The freeze/ thaw stability, accuracy (mean of n=3) in data set [2] (setting [3]) amounted to 105%; in data set [2] (setting [4]), 107%. For the same sequence, the entries for the “freeze/ thaw stability, deviation” value in data set [2] (setting [3]) and in data set [2] (setting [4]) were -4% and -3%, respectively.
